Converted amounts (≈) assume the structure as drawn.
Key:
Assay type in all cases: functional
Streptococcus pneumoniae [1] = experiment: Compound was tested for antibacterial activity against Streptococcus pneumoniae 030SJ1 EryRc using standard broth microdilution assay.
Haemophilus influenzae = experiment: Compound was tested for antibacterial activity against Haemophilus influenzae 351HT3 using standard broth microdilution assay.
Escherichia coli = experiment: Compound was tested for antibacterial activity against Escherichia coli 250 UC5 using standard broth microdilution assay.
Streptococcus pneumoniae [2] = experiment: Compound was tested for antibacterial activity against Streptococcus pneumoniae 032UC1 using standard broth microdilution assay.
Streptococcus pyogenes = experiment: Compound was tested for antibacterial activity against Streptococcus pyogenes 02A1UC1 using standard broth microdilution assay.
Streptococcus pneumoniae [3] = experiment: Compound was tested for antibacterial activity against Streptococcus pneumoniae 030SJ5i EryRi using standard broth microdilution assay.
Staphylococcus aureus = experiment: Compound was tested for antibacterial activity against Staphylococcus aureus 011UC4 using standard broth microdilution assay.

SMILES | MIC (Streptococcus pneumoniae [1]) [µg/mL] | MIC (Haemophilus influenzae) [µg/mL] | MIC (Escherichia coli) [µg/mL] | MIC (Streptococcus pneumoniae [2]) [µg/mL] | MIC (Streptococcus pyogenes) [µg/mL] | MIC (Streptococcus pneumoniae [3]) [µg/mL] | MIC (Staphylococcus aureus) [µg/mL]
CC[C@H]1OC(=O)[C@H](C)[C@@H](O[C@H]2C[C@@](C)(OC)[C@@H](O)[C@H](C)O2)[C@H](C)[C@@H](O[C@@H]2O[C@H](C)C[C@H](N(C)C)[C@H]2O)[C@](C)(OC)C[C@@H](C)C2=N[C@H](C)[C@@H](O2)[C@]1(C)O | 40 (≈ 53.7 µM) | 10 (≈ 13.4 µM) | 40 (≈ 53.7 µM) | 40 (≈ 53.7 µM) | 40 (≈ 53.7 µM) | 40 (≈ 53.7 µM) | 20 (≈ 26.8 µM)
CC[C@H]1OC(=O)[C@H](C)C(=O)[C@H](C)[C@@H](OC2O[C@H](C)C[C@H](N(C)C)[C@H]2O)[C@](C)(OC)C[C@@H](C)C(=O)[C@H](C)[C@H]2N(CCCCn3cnc(-c4cccnc4)c3)C(=O)O[C@]12C (some centres not stated) | 0.02 (≈ 0.0246 µM) | 1.2 (≈ 1.48 µM) | 10 (≈ 12.3 µM) | 0.02 (≈ 0.0246 µM) | 0.02 (≈ 0.0246 µM) | 0.02 (≈ 0.0246 µM) | 0.04 (≈ 0.0493 µM)
CC[C@H]1OC(=O)[C@H](C)[C@@H](O[C@H]2C[C@@](C)(OC)[C@@H](O)[C@H](C)O2)[C@H](C)[C@@H](O[C@@H]2O[C@H](C)C[C@H](N(C)C)[C@H]2O)[C@](C)(O)C[C@@H](C)CN(C)[C@H](C)[C@@H](O)[C@]1(C)O [AZITHROMYCIN] | 40 (≈ 53.4 µM) | 1.2 (≈ 1.6 µM) | 20 (≈ 26.7 µM) | 0.15 (≈ 0.2 µM) | 0.6 (≈ 0.801 µM) | 40 (≈ 53.4 µM) | 0.3 (≈ 0.401 µM)

The remaining lines, values ahead:

MIC (Streptococcus pneumoniae [1]) [µg/mL] | MIC (Haemophilus influenzae) [µg/mL] | MIC (Escherichia coli) [µg/mL] | MIC (Streptococcus pneumoniae [2]) [µg/mL] | MIC (Streptococcus pyogenes) [µg/mL] | MIC (Streptococcus pneumoniae [3]) [µg/mL] | MIC (Staphylococcus aureus) [µg/mL] | SMILES
40 (≈ 52.4 µM) | 2.5 (≈ 3.28 µM) | 40 (≈ 52.4 µM) | 1.2 (≈ 1.57 µM) | 0.6 (≈ 0.786 µM) | 10 (≈ 13.1 µM) | 1.2 (≈ 1.57 µM) | CC[C@H]1OC(=O)[C@H](C)[C@@H](O[C@H]2C[C@@](C)(OC)[C@@H](O)[C@H](C)O2)[C@H](C)[C@@H](OC2O[C@H](C)C[C@H](N(C)C)[C@H]2O)[C@](C)(OC)C[C@@H](C)C(=O)N[C@H](C)[C@@H](O)[C@]1(C)O (some centres not stated)
> 40 | 2.5 (≈ 3.28 µM) | 20 (≈ 26.2 µM) | 0.15 (≈ 0.197 µM) | 0.15 (≈ 0.197 µM) | > 40 | 1.2 (≈ 1.57 µM) | CC[C@H]1OC(=O)[C@H](C)[C@@H](O[C@H]2C[C@@](C)(OC)[C@@H](O)[C@H](C)O2)[C@H](C)[C@@H](O[C@@H]2O[C@H](C)C[C@H](N(C)C)[C@H]2O)[C@](C)(OC)C[C@@H](C)CN(C)[C@H](C)[C@@H](O)[C@]1(C)O
40 (≈ 66.4 µM) | 40 (≈ 66.4 µM) | 40 (≈ 66.4 µM) | 40 (≈ 66.4 µM) | 40 (≈ 66.4 µM) | 40 (≈ 66.4 µM) | 40 (≈ 66.4 µM) | CC[C@H]1OC(=O)[C@H](C)C(=O)[C@H](C)[C@@H](O[C@@H]2O[C@H](C)C[C@H](N(C)C)[C@H]2O)[C@](C)(OC)C[C@@H](C)CN(C)[C@H](C)[C@@H](O)[C@]1(C)O

Source: ChEMBL document CHEMBL1130953, “Synthesis of 6-O-methyl-azithromycin and its ketolide analogue via Beckmann rearrangement of 9(E)-6-O-methyl-erythromycin oxime” (1998)
